Earlier results on 1 compound are cited in patent publication US20060154930A1, “Substituted amino heterocycles as vr-1 antagonists for treating pain” (priority 2003, published 2006).

This data set concerns the target VR1 (Rattus norvegicus, UniProt O35433). The conditions noted are these: Wahl et al., Mol. Pharmacol, 59:9, 2001.

Sequence of VR1 (O35433 whole entry): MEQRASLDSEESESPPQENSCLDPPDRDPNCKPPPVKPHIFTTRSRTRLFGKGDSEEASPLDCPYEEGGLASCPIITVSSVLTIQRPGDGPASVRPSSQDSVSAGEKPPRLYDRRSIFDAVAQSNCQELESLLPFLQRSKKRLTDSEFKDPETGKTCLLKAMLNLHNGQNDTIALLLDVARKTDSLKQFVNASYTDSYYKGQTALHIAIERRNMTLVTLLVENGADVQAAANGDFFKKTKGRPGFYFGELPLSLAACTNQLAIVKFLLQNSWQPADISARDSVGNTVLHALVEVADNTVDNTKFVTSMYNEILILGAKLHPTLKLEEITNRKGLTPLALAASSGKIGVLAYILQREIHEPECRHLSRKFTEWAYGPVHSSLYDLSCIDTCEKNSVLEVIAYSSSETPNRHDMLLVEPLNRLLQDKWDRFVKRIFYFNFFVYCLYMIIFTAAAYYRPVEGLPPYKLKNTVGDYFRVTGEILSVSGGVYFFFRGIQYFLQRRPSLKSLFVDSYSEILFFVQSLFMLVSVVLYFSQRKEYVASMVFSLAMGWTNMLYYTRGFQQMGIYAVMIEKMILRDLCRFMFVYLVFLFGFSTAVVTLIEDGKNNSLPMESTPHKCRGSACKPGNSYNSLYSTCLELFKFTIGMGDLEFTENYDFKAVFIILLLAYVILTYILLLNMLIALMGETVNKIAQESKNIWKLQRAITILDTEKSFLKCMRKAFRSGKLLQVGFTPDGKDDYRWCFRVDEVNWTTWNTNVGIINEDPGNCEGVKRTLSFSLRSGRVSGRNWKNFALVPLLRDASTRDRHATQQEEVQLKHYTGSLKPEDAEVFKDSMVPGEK

`C=C(C)[C@]12C[C@@H](C)[C@@]34O[C@](Cc5ccccc5)(O[C@@H]1[C@@H]3C=C(COC(=O)Cc1cc(I)c(O)c(OC)c1)C[C@]1(O)C(=O)C(C)=C[C@@H]41)O2` [Iodo-resiniferatoxin]: the “VR1 antagonist potency (in words)” value is recorded as “nanomolar antagonist”.
